Data as given in paper PMC10088252.
Read-outs that look alike come from different tables or passages of the source.

O=C(Nc1ccc(Oc2ccnc3c2CCN3)c(F)c1)c1c[nH]cc(-c2ccc(F)cc2)c1=O
TRAE Rash maculo-papular, any grade (600 mg QD (n=10)): 0 n (%)
TRAE Rash maculo-papular, grade 3-4 (600 mg QD (n=10)): 0 n (%)
TRAE Sinus tachycardia, any grade (600 mg QD (n=10)): 1 (10.0) n (%)
TRAE Sinus tachycardia, grade 3-4 (600 mg QD (n=10)): 0 n (%)
TRAE Skin fissures, any grade (600 mg QD (n=10)): 1 (10.0) n (%)
TRAE Skin fissures, grade 3-4 (600 mg QD (n=10)): 1 (10.0) n (%)
TRAE Supraventricular extrasystoles, any grade (600 mg QD (n=10)): 1 (10.0) n (%)
TRAE Supraventricular extrasystoles, grade 3-4 (600 mg QD (n=10)): 0 n (%)
TRAE Thrombocytopenia, any grade (600 mg QD (n=10)): 1 (10.0) n (%)
TRAE Thrombocytopenia, grade 3-4 (600 mg QD (n=10)): 1 (10.0) n (%)
TRAE Upper respiratory tract infection, any grade (600 mg QD (n=10)): 0 n (%)
TRAE Upper respiratory tract infection, grade 3-4 (600 mg QD (n=10)): 0 n (%)
TRAE Urinary retention, any grade (600 mg QD (n=10)): 1 (10.0) n (%)
TRAE Urinary retention, grade 3-4 (600 mg QD (n=10)): 0 n (%)
TRAE Urinary tract infection, any grade (600 mg QD (n=10)): 2 (20.0) n (%)
TRAE Urinary tract infection, grade 3-4 (600 mg QD (n=10)): 0 n (%)
TRAE Ventricular arrhythmia, any grade (600 mg QD (n=10)): 1 (10.0) n (%)
TRAE Ventricular arrhythmia, grade 3-4 (600 mg QD (n=10)): 0 n (%)
TRAE Ventricular extrasystoles, any grade (600 mg QD (n=10)): 0 n (%)
TRAE Ventricular extrasystoles, grade 3-4 (600 mg QD (n=10)): 0 n (%)
TRAE Vomiting, any grade (600 mg QD (n=10)): 0 n (%)
TRAE Vomiting, grade 3-4 (600 mg QD (n=10)): 0 n (%)
TRAE Weight loss, any grade (600 mg QD (n=10)): 1 (10.0) n (%)
TRAE Weight loss, grade 3-4 (600 mg QD (n=10)): 0 n (%)
SAEs, patients (Total (n=38)): 13.2%
TRAE Accessory nerve disorder, any grade (Total (n=38)): 1 (2.6) n (%)
TRAE Accessory nerve disorder, grade 3-4 (Total (n=38)): 0 n (%)
TRAE Activated partial thromboplastin time prolonged, any grade (Total (n=38)): 2 (5.3) n (%)
TRAE Activated partial thromboplastin time prolonged, grade 3-4 (Total (n=38)): 0 n (%)
TRAE Anaemia, any grade (Total (n=38)): 2 (5.3) n (%)
TRAE Anaemia, grade 3-4 (Total (n=38)): 1 (2.6) n (%)
TRAE Anaesthesia oral, any grade (Total (n=38)): 1 (2.6) n (%)
TRAE Anaesthesia oral, grade 3-4 (Total (n=38)): 0 n (%)
TRAE Arrhythmia, any grade (Total (n=38)): 1 (2.6) n (%)
TRAE Arrhythmia, grade 3-4 (Total (n=38)): 0 n (%)
TRAE Arthralgia, any grade (Total (n=38)): 1 (2.6) n (%)
TRAE Arthralgia, grade 3-4 (Total (n=38)): 0 n (%)
TRAE Asthenia, any grade (Total (n=38)): 5 (13.2) n (%)
TRAE Asthenia, grade 3-4 (Total (n=38)): 1 (2.6) n (%)
TRAE Blister, any grade (Total (n=38)): 1 (2.6) n (%)
TRAE Blister, grade 3-4 (Total (n=38)): 0 n (%)
TRAE Chest discomfort, any grade (Total (n=38)): 1 (2.6) n (%)
TRAE Chest discomfort, grade 3-4 (Total (n=38)): 0 n (%)
TRAE Chronic kidney disease, any grade (Total (n=38)): 1 (2.6) n (%)
TRAE Chronic kidney disease, grade 3-4 (Total (n=38)): 0 n (%)
TRAE Constipation, any grade (Total (n=38)): 8 (21.1) n (%)
TRAE Constipation, grade 3-4 (Total (n=38)): 0 n (%)
TRAE Cough, any grade (Total (n=38)): 1 (2.6) n (%)
TRAE Cough, grade 3-4 (Total (n=38)): 0 n (%)
TRAE Decreased Ccr, any grade (Total (n=38)): 6 (15.8) n (%)
TRAE Decreased Ccr, grade 3-4 (Total (n=38)): 0 n (%)
TRAE Decreased appetite, any grade (Total (n=38)): 5 (13.2) n (%)
TRAE Decreased appetite, grade 3-4 (Total (n=38)): 1 (2.6) n (%)
TRAE Diarrhoea, any grade (Total (n=38)): 3 (7.9) n (%)
TRAE Diarrhoea, grade 3-4 (Total (n=38)): 0 n (%)
TRAE Dizziness, any grade (Total (n=38)): 1 (2.6) n (%)
TRAE Dizziness, grade 3-4 (Total (n=38)): 0 n (%)
TRAE Dry mouth, any grade (Total (n=38)): 3 (7.9) n (%)
TRAE Dry mouth, grade 3-4 (Total (n=38)): 0 n (%)
TRAE Dysgeusia, any grade (Total (n=38)): 9 (23.7) n (%)
TRAE Dysgeusia, grade 3-4 (Total (n=38)): 1 (2.6) n (%)
TRAE Dyskinesia, any grade (Total (n=38)): 1 (2.6) n (%)
TRAE Dyskinesia, grade 3-4 (Total (n=38)): 1 (2.6) n (%)
TRAE Dysphonia, any grade (Total (n=38)): 1 (2.6) n (%)
TRAE Dysphonia, grade 3-4 (Total (n=38)): 0 n (%)
TRAE Dyspnoea, any grade (Total (n=38)): 1 (2.6) n (%)
TRAE Dyspnoea, grade 3-4 (Total (n=38)): 1 (2.6) n (%)
TRAE Electrocardiogram QT prolonged, any grade (Total (n=38)): 1 (2.6) n (%)
TRAE Electrocardiogram QT prolonged, grade 3-4 (Total (n=38)): 0 n (%)
TRAE Elevated ALT, any grade (Total (n=38)): 14 (36.8) n (%)
TRAE Elevated ALT, grade 3-4 (Total (n=38)): 0 n (%)
TRAE Elevated AST, any grade (Total (n=38)): 11 (28.9) n (%)
TRAE Elevated AST, grade 3-4 (Total (n=38)): 0 n (%)
TRAE Elevated D dimer, any grade (Total (n=38)): 1 (2.6) n (%)
TRAE Elevated D dimer, grade 3-4 (Total (n=38)): 0 n (%)
TRAE Elevated GGT, any grade (Total (n=38)): 1 (2.6) n (%)
TRAE Elevated GGT, grade 3-4 (Total (n=38)): 0 n (%)
TRAE Elevated LDH, any grade (Total (n=38)): 1 (2.6) n (%)
TRAE Elevated LDH, grade 3-4 (Total (n=38)): 0 n (%)
TRAE Elevated alpha-HBDH, any grade (Total (n=38)): 1 (2.6) n (%)
TRAE Elevated alpha-HBDH, grade 3-4 (Total (n=38)): 0 n (%)
TRAE Elevated bilirubin, any grade (Total (n=38)): 3 (7.9) n (%)
TRAE Elevated bilirubin, grade 3-4 (Total (n=38)): 0 n (%)
TRAE Elevated blood creatinine, any grade (Total (n=38)): 7 (18.4) n (%)
TRAE Elevated blood creatinine, grade 3-4 (Total (n=38)): 0 n (%)
TRAE Elevated creatine phosphokinase, any grade (Total (n=38)): 3 (7.9) n (%)
TRAE Elevated creatine phosphokinase, grade 3-4 (Total (n=38)): 0 n (%)
TRAE Elevated serum urea, any grade (Total (n=38)): 1 (2.6) n (%)
TRAE Elevated serum urea, grade 3-4 (Total (n=38)): 0 n (%)
TRAE Elevated troponin, any grade (Total (n=38)): 1 (2.6) n (%)
TRAE Elevated troponin, grade 3-4 (Total (n=38)): 0 n (%)
TRAE Genital rash, any grade (Total (n=38)): 1 (2.6) n (%)
TRAE Genital rash, grade 3-4 (Total (n=38)): 0 n (%)
TRAE Haematuria, any grade (Total (n=38)): 3 (7.9) n (%)
TRAE Haematuria, grade 3-4 (Total (n=38)): 0 n (%)
TRAE Headache, any grade (Total (n=38)): 1 (2.6) n (%)
TRAE Headache, grade 3-4 (Total (n=38)): 0 n (%)
TRAE Hyperhidrosis, any grade (Total (n=38)): 1 (2.6) n (%)
TRAE Hyperhidrosis, grade 3-4 (Total (n=38)): 0 n (%)
TRAE Hyperlipidaemia, any grade (Total (n=38)): 1 (2.6) n (%)
TRAE Hyperlipidaemia, grade 3-4 (Total (n=38)): 0 n (%)
TRAE Hypertension, any grade (Total (n=38)): 4 (10.5) n (%)
TRAE Hypertension, grade 3-4 (Total (n=38)): 1 (2.6) n (%)
TRAE Hypoaesthesia oral, any grade (Total (n=38)): 2 (5.3) n (%)
TRAE Hypoaesthesia oral, grade 3-4 (Total (n=38)): 0 n (%)
TRAE Hypocalcaemia, any grade (Total (n=38)): 1 (2.6) n (%)
TRAE Hypocalcaemia, grade 3-4 (Total (n=38)): 0 n (%)
TRAE Hypotension, any grade (Total (n=38)): 1 (2.6) n (%)
TRAE Hypotension, grade 3-4 (Total (n=38)): 0 n (%)
TRAE Insomnia, any grade (Total (n=38)): 1 (2.6) n (%)
TRAE Insomnia, grade 3-4 (Total (n=38)): 0 n (%)
TRAE Leukopenia, any grade (Total (n=38)): 3 (7.9) n (%)
TRAE Leukopenia, grade 3-4 (Total (n=38)): 0 n (%)
TRAE Nausea, any grade (Total (n=38)): 3 (7.9) n (%)
TRAE Nausea, grade 3-4 (Total (n=38)): 0 n (%)
TRAE Neuritis, any grade (Total (n=38)): 2 (5.3) n (%)
TRAE Neuritis, grade 3-4 (Total (n=38)): 0 n (%)
TRAE Occult blood, any grade (Total (n=38)): 2 (5.3) n (%)
TRAE Occult blood, grade 3-4 (Total (n=38)): 0 n (%)
TRAE Oedema peripheral, any grade (Total (n=38)): 2 (5.3) n (%)
TRAE Oedema peripheral, grade 3-4 (Total (n=38)): 0 n (%)
TRAE Onycholysis, any grade (Total (n=38)): 1 (2.6) n (%)
TRAE Onycholysis, grade 3-4 (Total (n=38)): 0 n (%)
TRAE Oropharyngeal pain, any grade (Total (n=38)): 1 (2.6) n (%)
TRAE Oropharyngeal pain, grade 3-4 (Total (n=38)): 1 (2.6) n (%)
TRAE PPE (Total (n=38)): 23.7%
TRAE PPE, any grade (Total (n=38)): 9 (23.7) n (%)
TRAE PPE, grade 3-4 (Total (n=38)): 4 (10.5) n (%)
TRAE Paraesthesia, any grade (Total (n=38)): 1 (2.6) n (%)
TRAE Paraesthesia, grade 3-4 (Total (n=38)): 0 n (%)
TRAE Proteinuria, any grade (Total (n=38)): 4 (10.5) n (%)
TRAE Proteinuria, grade 3-4 (Total (n=38)): 1 (2.6) n (%)
TRAE Pruritus, any grade (Total (n=38)): 1 (2.6) n (%)
TRAE Pruritus, grade 3-4 (Total (n=38)): 0 n (%)
TRAE Rash maculo-papular, any grade (Total (n=38)): 1 (2.6) n (%)
TRAE Rash maculo-papular, grade 3-4 (Total (n=38)): 0 n (%)
TRAE Sinus tachycardia, any grade (Total (n=38)): 1 (2.6) n (%)
TRAE Sinus tachycardia, grade 3-4 (Total (n=38)): 0 n (%)
TRAE Skin fissures, any grade (Total (n=38)): 1 (2.6) n (%)
TRAE Skin fissures, grade 3-4 (Total (n=38)): 1 (2.6) n (%)
TRAE Supraventricular extrasystoles, any grade (Total (n=38)): 1 (2.6) n (%)
TRAE Supraventricular extrasystoles, grade 3-4 (Total (n=38)): 0 n (%)
TRAE Thrombocytopenia, any grade (Total (n=38)): 3 (7.9) n (%)
TRAE Thrombocytopenia, grade 3-4 (Total (n=38)): 2 (5.3) n (%)
TRAE Upper respiratory tract infection, any grade (Total (n=38)): 1 (2.6) n (%)
TRAE Upper respiratory tract infection, grade 3-4 (Total (n=38)): 0 n (%)
TRAE Urinary retention, any grade (Total (n=38)): 1 (2.6) n (%)
TRAE Urinary retention, grade 3-4 (Total (n=38)): 0 n (%)
TRAE Urinary tract infection, any grade (Total (n=38)): 3 (7.9) n (%)
TRAE Urinary tract infection, grade 3-4 (Total (n=38)): 0 n (%)
TRAE Ventricular arrhythmia, any grade (Total (n=38)): 3 (7.9) n (%)
TRAE Ventricular arrhythmia, grade 3-4 (Total (n=38)): 0 n (%)
TRAE Ventricular extrasystoles, any grade (Total (n=38)): 1 (2.6) n (%)
TRAE Ventricular extrasystoles, grade 3-4 (Total (n=38)): 0 n (%)
TRAE Vomiting, any grade (Total (n=38)): 2 (5.3) n (%)
TRAE Vomiting, grade 3-4 (Total (n=38)): 0 n (%)
TRAE Weight loss, any grade (Total (n=38)): 1 (2.6) n (%)
TRAE Weight loss, grade 3-4 (Total (n=38)): 0 n (%)
TRAE constipation (Total (n=38)): 21.1%
TRAE dysgeusia (Total (n=38)): 23.7%
TRAE elevated ALT (Total (n=38)): 36.8%
TRAE elevated AST (Total (n=38)): 28.9%
grade ≥ 3 TEAEs, patients (Total (n=38)): 36.8%
grade ≥ 3 TRAE PPE (Total (n=38)): 10.5%
grade ≥ 3 TRAEs, patients (Total (n=38)): 28.9%
patients with at least one TEAE (Total (n=38)): All the 38 patients
treatment-related deaths (Total (n=38)): No treatment-related deaths occurred
TRAE leading to treatment discontinuation, patients (Total (n=38), grade 3 PPE in 400 mg BID cohort): 2.6%
treatment-related SAE, patients (Total (n=38), thrombocytopenia in 600 mg QD cohort): 2.6%
